According to publication PMC12254266, “Multicolored sequential resonance energy transfer for detection of simultaneous ligand binding at G protein-coupled receptors” (Nature Communications, 2025):
Several values for one entry are separate records, joined by “and”; a condition that tells them apart may be missing. Equal entries are not always repeated. Where two headings read alike, the source gives them in different places.

Columns and labels:
FFA1-Nluc [1] = target: T1, FFA1-Nluc (Homo sapiens, UniProt O14842); assay: DISCo-BRET (endpoint, spectra scan, kinetics) with TUG-2591 and TUG-2597 at C terminal Nluc tagged FFA1; format: binding; design: expressed in transfected cells; conditions: for Specific BRET (540/450): Sup Fig 3Bii, TUG-2591 0 nM; for Kd: TUG-2597 after TUG-2591 pre-treatment
Method in brief: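 After Nano-Glo substrate (1:800 final), ligand-treated FFA1-Nluc or Nluc-FFA1 cells, doxycycline-induced (100 ng/mL), were read. Kinetic association/dissociation runs were at 25 °C; endpoint and 440–740 nm spectra came after 5 min at 37 °C. Non-specific signal came from competing ligands at high concentration.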

FFA1-Nluc [2] = target: T1, FFA1-Nluc; assay: Bystander BRET internalisation assay, FFA1-Nluc in HEK293T cells; format: cell-based; design: expressed in transfected cells; host or cells: HEK293T (ATCC, CRL-3216), transient; conditions: in words; up to 60 min
Method: Cells were transfected using a reverse transfection protocol while plating into a poly-D-lysine coated white 96-well plates. Cells were plated at 60,000 cells with 100 ng of plasmid DNA and 0.6 µg of polyethyleneimine (PEI) per well. Cells were cultured for 24 h before washing with HBSS and incubating in HBSS at 37 °C for 30 min. NanoGlo substrate was added a final 1:800 dilution and plates incubated for 10 min at 37 °C. […] After 5 min of baseline measurements, readings were paused and test compounds added to the plate.

FFA1 [3] = target: T2, FFA1 (Homo sapiens, UniProt O14842); assay: Ca2+ mobilisation (Fura2) in Flp-In T-REx 293 cells expressing Nluc-FFA1, FFA1-Nluc or untagged FFA1; format: cell-based; design: expressed in transfected cells
Method in brief: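 520 nm emission read at 340 and 380 nm excitation over 90 s spanning compound addition. Response taken as peak 340/380 ratio after subtracting pre-addition ratios.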

FFA1 [4] = target: T2, FFA1; assay: NanoBiT arrestin-3 recruitment in HEK293T cells; format: cell-based; design: expressed in transfected cells; host or cells: HEK293T, transient; conditions: ± SEM
Method in brief: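 HEK293T cells reverse-transfected with human FFA1, membrane-tagged (Lyn11) LgBiT and SmBiT-bovine arrestin-3, used after 24 h. After 30 min HBSS at 37 °C and NanoGlo substrate (1:800, 10 min), luminescence normalised to pre-addition baseline, vehicle subtracted; area under curve used for concentration-response curves.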

[5] = TUG-2591 100 nM + TUG-2597 […], displacing ligand T360 10 μM
[6] = TUG-2597 […] after TUG-2591 pre-treatment (Sup. Fig. 10A)
[7] = based on the value calculated in Supplementary Table 4
[8] = tracers 1.0 μΜ / 3.16 μΜ, displacing ligand T360 (30 μM)

T1 sequence (O14842 whole entry): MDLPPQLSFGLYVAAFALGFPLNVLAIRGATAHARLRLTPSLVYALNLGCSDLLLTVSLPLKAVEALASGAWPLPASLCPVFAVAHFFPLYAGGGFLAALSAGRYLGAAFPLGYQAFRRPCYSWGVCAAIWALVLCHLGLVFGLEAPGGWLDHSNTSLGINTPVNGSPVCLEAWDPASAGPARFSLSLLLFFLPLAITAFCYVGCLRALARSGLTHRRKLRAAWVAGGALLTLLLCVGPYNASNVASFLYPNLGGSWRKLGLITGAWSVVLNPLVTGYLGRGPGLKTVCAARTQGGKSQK
T2 sequence (O14842 whole entry): as above

COc1ccc(C(=O)N(CC(C)(C)CNc2ccc([N+](=O)[O-])c3nonc23)c2cccc(C)n2)c(N2CCC(COc3cccc(C(CC(=O)O)C4CC4)c3)CC2)c1.O=C(O)C(F)(F)F (stereo not drawn) [TUG-2597]
Specific BRET (540/450) (FFA1-Nluc [1]; TUG-2597 + TUG-905): 0.2651 and 0.2434 and 0.2485 and 0.2471 and 0.2191 and 0.2108
Specific BRET (540/450) (FFA1-Nluc [1]; TUG-2597 alone): 0.1932 and 0.1879 and 0.1690 and 0.1361 and 0.1137 and 0.1169
kOff DISCo-BRET NBD/Nluc (FFA1-Nluc [1]; [5]): 0.004 s⁻¹
kOff DISCo-BRET SulfoCy5/NBD (FFA1-Nluc [1]; [5]): 0.0045 s⁻¹
kOff DISCo-BRET NBD/Nluc (FFA1-Nluc [1]; TUG-2591 100 nM + TUG-2597 […], displacing ligands TUG-905 and T360 10 μM each): 0.00367 s⁻¹
kOn DISCo-BRET NBD/Nluc (FFA1-Nluc [1]; [6]): 31666.67 M⁻¹ s⁻¹
kOn DISCo-BRET SulfoCy5/NBD (FFA1-Nluc [1]; [6]): 28333.33 M⁻¹ s⁻¹
Kd (FFA1-Nluc [1]; read-out: Kd DISCo-BRET NBD/Nluc (kinetic)): 130 nM
Kd (FFA1-Nluc [1]; read-out: Kd DISCo-BRET SulfoCy5/NBD (kinetic)): 140 nM
kOff DISCo-BRET NBD/Nluc (FFA1-Nluc [1]; [7]): 0.004 s⁻¹
kOff DISCo-BRET SulfoCy5/NBD (FFA1-Nluc [1]; [7]): 0.004 s⁻¹
off rate from DISCo-BRET binding studies (FFA1-Nluc [1]; range depending on which tracer concentration was used (author rebuttal)): 0.18-0.27
kOff DISCo-BRET NBD/Nluc (FFA1-Nluc [1]; [8]): 0.004 s⁻¹
kOff DISCo-BRET SulfoCy5/NBD (FFA1-Nluc [1]; [8]): 0.003 s⁻¹
kOff DISCo-BRET NBD/Nluc (FFA1-Nluc [1]; tracers 1.0 μΜ / 3.16 μΜ, displacing ligands TUG-905 and T360 (30 μM each)): 0.00667 s⁻¹
internalization of FFA1-Nluc (FFA1-Nluc [2]): No internalization
pEC50 (FFA1 [3]; Ca2+ data, mean±SEM, NR = No response): 7.27±0.15
Ca2+ Response as a % of T360 Response (FFA1 [3]; FFA1-Nluc cells, log[ligand] -6, technical replicates): 99.449% and 102.959% and 94.044% and 86.097% and 89.862% and 94.557% and 93.903% and 112.372% and 96.085%
Ca2+ Response as a % of T360 Response (FFA1 [3]; FFA1-Nluc cells, log[ligand] -6.5, technical replicates): 93.856%
Ca2+ Response as a % of T360 Response (FFA1 [3]; Nluc-FFA1 cells, log[ligand] -6, technical replicates): 98.502% and 90.832% and 83.286% and 100.456% and 100.532% and 98.348% and 86.132% and 101.429% and 99.802%
Ca2+ Response as a % of T360 Response (FFA1 [3]; Nluc-FFA1 cells, log[ligand] -6.5, technical replicates): 75.000% and 74.673% and 79.991% and 79.440% and 88.972% and 77.424%
activity in Ca2+ assays (FFA1 [3]; in words): full agonist activity
Ca2+ Response as a % of T360 Response (FFA1 [3]; log[Ligand] -5, single technical replicates): 94.1089% and 100.3658% and 94.0694% and 95.2773% and 93.4218% and 94.0281% and 113.6201% and 103.7535% and 91.4802%
Ca2+ Response as a % of T360 Response (FFA1 [3]; log[Ligand] -5.5, single technical replicates): 88.4228% and 88.1164% and 92.8756% and 94.9449% and 95.8176% and 102.8518% and 111.3779% and 100.7045% and 94.6978%
Ca2+ Response as a % of T360 Response (FFA1 [3]; log[Ligand] -6, single technical replicates): 102.9594% and 94.0443% and 86.0972% and 89.8623% and 94.5572% and 93.9027% and 112.3722% and 96.0847% and 99.4485%
Ca2+ Response as a % of T360 Response (FFA1 [3]; log[Ligand] -6.5, single technical replicates): 98.0209% and 82.7239% and 91.3275% and 93.3935% and 84.3453% and 87.8268% and 93.2804% and 88.9497% and 93.8558%
Ca2+ Response as a % of T360 Response (FFA1 [3]; log[Ligand] -7, single technical replicates): 78.0026% and 75.4199% and 62.2477% and 75.7232% and 79.9853% and 65.5987% and 54.9740% and 35.8972% and 43.3457%
Ca2+ Response as a % of T360 Response (FFA1 [3]; log[Ligand] -8, single technical replicates): 14.2762% and 15.7577% and 11.8329% and 8.5966% and 24.0260% and 6.3496% and -0.7745% and -0.6973% and 0.6419%
Ca2+ Response as a % of T360 Response (FFA1 [3]; log[Ligand] -9, single technical replicates): 2.8056% and 3.1175% and 1.8245% and 0.4833% and 3.2822% and 3.2529% and 0.4143% and 0.1324% and 3.0301%
EMax (FFA1 [3]; percentage of response to 10 μM T360, NR = No response): 101±4%
Ca2+ Response as a % of T360 Response (FFA1 [3]; untagged FFA1 cells, log[ligand] -6, technical replicates): 93.834% and 82.677% and 85.015% and 110.264% and 98.194% and 98.400% and 82.235% and 72.424% and 63.906% and 83.124% and 92.268% and 73.931%
EMax (% TUG-905) arrestin-3 recruitment (FFA1 [4]; percentage of the response to 10 μM TUG-905): 60 ± 6%
pEC50 arrestin-3 recruitment (FFA1 [4]; N=3): 8.5 ± 0.3
